The test system of one data set is type I collagen. In words: Type I collagen ELISA, TGF-b1 stimulated skin fibroblasts. The data set is classed as cell-based. Conditions: human skin fibroblasts. On the procedure:
(§1) Additional studies using human skin fibroblasts were performed employing a type I collagen specific ELISA Chondrex, and real time RT PCR to quantitate type I collagen protein and Col1A1 mRNA expression in culture of human fibroblast stimulated by TGF-b1 in the presence and absence of 17,20S(OH)2pD3 and/or 20(OH)D3. These studies confirmed that Type I collagen protein production that was induced by TGF-b1 and that Col1A1 mRNA that was induced by TGF-b1 were suppressed by these analogues (FIGS. 44A-44B).

A further data set relates to Human dermal fibroblasts. In words: TGF-b1 induced collagen protein production by dermal fibroblasts. The data set is classed as cell-based. Conditions: collagenase sensitive protein, [3H]-proline. On the procedure:
Human dermal fibroblasts grown from explant skin cultures at less than 10 subpassages were plated at 5×10^4 cells per well in 24 well Costar tissue culture plates and were grown to confluency. Complete MEM was then changed to serum free Complete MEM without non-essential amino acids. After 24 hours, culture medium was changed (450 μl/well) to the same and secosteroids listed in Table 14 were added in 10 μl absolute alcohol (ETOH) to a final concentration of 10^−9 and M, 3 replicate wells each. Vehicle control wells (n=6) contained 10 μl (ETOH). After 2 hour pre-incubation, hr TGF-b1 (R and D systems) was added to each well except ETOH wells at a final concentration of 5 ng/ml. After 48 hours of culture, plate wells were paused with 1μ Cl ^3[H]-proline. After 24 hours, culture supernatants were harvested and collagenase sensitive protein was determined as previously described (44).

Data set [1] concerns anti-CD3 stimulated DBA/1 Lac J spleen cells. In words: Cytokine/chemokine production by anti-CD3 stimulated spleen cells (Luminex). The data set is classed as cell-based, mouse. Conditions: spleen cells + anti-CD3 (4 μg/ml) + analogue 10^−7 M, 5 days, supernatant, one mouse. On the procedure: Vitamin D analogues were solubilzed in absolute alcohol (EtOH) and added at 1:100 dilution to cultures of spleen cells from normal DBA/1 Lac J mice (Table 13). […] Therefore, changes are not due to decreased cell viability.
Spleen cells from three normal 8 wk old female DBA/1 Lac J mice were cultured in 96 well tissue culture plates in quadruplicate at 2×10^6 cells/ml in RPMI 1640 medium containing 9% FCS with and without anti-CD3 (4 μg/ml) and with anti-CD3+10^−7M natural vitamin D analogues for 5 days after which time supernatants were harvested and subjected to cytokine multiplex on a Luminex instrument using Milliplex Mouse Kit (values are pg/ml). The general trend in changes in cytokine levels were similar for each of the mice but some produced different levels of each cytokine for each culture additions. Data from one mouse are given and bold numbers indicate those that changed from anti-CD3 stimulated culture with vitamin D analogues added. There was no significant stimulation of IL-1 g, IL-2, IL-4, IL-5, IL-7, IL-9, IL-12 p70, IL-13, IL-15, MIP-2, RANTES or TNFα with the anti-CD3 MOAB.

The subject of another data set is Col1A1 mRNA. Put plainly: Real time RT PCR Col1A1 mRNA, TGF-b1 stimulated skin fibroblasts. The data set is classed as cell-based. Conditions: human skin fibroblasts. The method, then: as §1
Data set [2] deals with AbC1 hamster melanoma cells. In words: Soft agar colony formation, AbC1 melanoma. The data set is classed as cell-based. Conditions: AbC1, 3 weeks. The method, then: Growth and survival of prostate cancer cells (PC3) and melanoma cells SKMEL 188 and AbC1 was determined by following their ability to form colonies in soft agar. Cells growing in monolayer culture were trypsinized and resuspended (1,000 cells/well) in 0.25 ml medium containing 0.4% agarose and 5% charcoal stripped serum (HyClone).
Cell suspensions were added to 0.8% agar layer in 24 well plates. Compounds were added from ethanol stocks (100 μM) to final concentrations of 0.1 nM or 10 nM, in 100 μL media. Each condition was tested in quadruplicate. An ethanol solvent control (amount of ethanol equivalent to test) as well as a media-only control was included in the assay. […] […] Colonies were then counted under the microscope and number of units was calculated as number of colonies formed divided by the number of cells seeded×100.

Data set [3] has as its system mouse erytholeukemia cells (Mel). In words: Viable cell count, MEL cells. The data set is classed as cell-based. Conditions: 10^-7 M, 7 days. On the procedure:
(§2) K562 human chronic myeloid leukemia (erythroleukemia) and MEL mouse erytholeukemia cells were cultured in RPMI 1640 containing 10% FBS and treated with the drugs at concentrations 0.1 μM. A 0.1% ethanol (EtOH) or 2% DMSO were used as negative or positive control, respectively to estimate the vehicle effect and the ability of the cells to differentiate. Media were exchanged every 72 h and drugs added every day. Growth of cultures was estimated by counting number of viable cells (trypan blue negative cells) as described previously.

Data set [4] relates to K562 human chronic myeloid leukemia cells. Put plainly: Erythroid differentiation of K562 cells. The data set is classed as cell-based. Conditions: 10^-7 M, 7 days. The method, then:
as §2
To estimate erythroid differentiation (production of hemoglobin), first the number of benzidine positive cells was evaluated after 2 and 7 days in culture. Cells were centrifuged and washed four times with PBS and resuspended in 1 mL of fresh PBS. For hemoglobin determination, a benzidine staining solution was freshly prepared by mixing one part of 30% hydrogen peroxide, one part of base stock solution of 3% benzidine in 90% acetic acid, and 5 parts of water. The solution was diluted 1:10 with the cell suspension and aliquoted in 4 wells in 24-well plate (250 μl each). After 10 min of incubation at RT benzidine-positive cells were counted under the microscope with a minimum of 200 cells scored.
Second, to define spectrophotometrically relative content of hemoglobin, equal number of cells (7×106) were washed with cold PBS and lysed for 20 min in 100 μL of lysis buffer (0.2% Triton X-100 in […] potassium phosphate buffer, pH 7.8). The lysates were centrifuged for 15 min at 1500 r.p.m. and 100 μL of the supernatant was incubated with 2 mL of benzidine solution (5 mg/mL in glacial acetic acid) and 2 ml 30% H2O2 for 10 min increases in comparison with the level of hemoglobin in mock-induced K562 or MEL cells.

Data set [5] relates to SKMEL-188 human melanoma cells. In words: MTT cell viability, SKMEL-188. The data set is classed as cell-based. Conditions: SKMEL-188, 48 hrs, dose dependent. The method, then:
MTT test were performed. Briefly, the cells were seeded in 96-well plate. Following 24, 48, 72 or 96 h incubation, MTT (5 mg/mL in PBS, Promega, Madison, Wis.) was added and the plates were incubated at 37° C. in 5% CO2 for 4 h. Subsequently, medium was discarded, acid isopropanol was added, plates were incubated for 30 min with continuous shaking and absorbance was measured at 570 nm with a plate reader (BIO-RAD Laboratories, Hercules, Calif.).

For data set [6], the system named is K562 human chronic myeloid leukemia cells. Put plainly: Viable cell count, K562 cells. The data set is classed as cell-based. Conditions: 10^-7 M, 7 days. On the procedure: as §2
Another data set concerns HaCaT keratinocytes. In words: [3H]-thymidine DNA synthesis in HaCaT keratinocytes. The data set is classed as cell-based, human. Conditions: HaCaT, 24 hrs, dose dependent. The method, then: HaCaT keratinocytes were plated in 96-well plates at the density of 10,000 cells/well in DMEM (Cellgro, Herndon Va.) containing 5% charcoal treated fetal bovine serum (Hyclone, Logan, Utah), 1% antibiotic solution (PSA, Sigma, St. Louis, […].). Next day, media were changed and vehicle (ethanol) or secosteroids added. Cells were incubated with compounds for 48 hours. [^3H]-thymidine (Amersham Biosciences, Picataway, N.Y.) was added to the final concentration of 1 μCi/mL medium for last 12 hours of incubation. Media were then discarded, cells detached with trypsin and harvested on a glass fiber filter (Packard, Meriden, Calif.). Radioactivity was measured with a beta counter (Direct Beta-Counter Matrix 9600; Packard).
To measure DNA synthesis, keratinocytes, melanoma or prostate cancer cells were plated in 96-well plates. After overnight incubation tested compounds were added to the medium to achieve final concentrations 10^−7-10^−10 [M]. 100 μl of medium per well containing vitamin D3 compound was added to the cells. After 36 hours of incubation [3H]-thymidine (specific activity 88.0 Ci/mmol; Amersham Biosciences, Picataway, N.Y., USA) was added at 1 μCi/mL medium. After 12 hours, media were discarded, cells detached with trypsin and harvested on a glass fiber filter (Packard, Meriden, Calif., USA). 3H-radioactivity was measured with a beta counter (Direct Beta-Counter Matrix 9600; Packard).
HaCaT keratinocytes were plated out in 24-well plates, 50,000 cells/well. […] After 4 h media were discarded, cells washed with cold phosphate-buffered saline and incubated in 10% trichloroacetic acid for 30 min. Cells were washed again with phosphate-buffered saline, 100 μl 1.0 M NaOH was added to each well and plates incubated for 30 min at 30° C. The supernatant was collected and the ^3H-radioactivity measured by scintillation counting using a Direct Beta-Counter Matrix 9600 (Packard). The [^3H]-thymidine incorporation into DNA was measured separately for each well and the results entered into the calculation as the mean of 6 wells for each condition in a series of six experiments (n=36). Data were analyzed with GraphPad Prizm Version 4.0 (GraphPad Software Inc., San Diego, Calif., USA) using t tests. Differences were considered significant when p<0.05.

For data set [7], the system named is U937 promonocytic leukemia cells. Put plainly: Monocytic differentiation (NBT), U937. The data set is classed as cell-based, human. Conditions: U937, 0.1 μM. On the procedure: (§3) HL-60 human promyelocytic and U937 promonocytic leukemia cells were treated with the drugs at 0.1 μM or vehicle (negative control or 12-O-tetradecanoylphorbol-13-acetate (TPA) (positive control). Media were changed every 72 h and test substances added fresh every day. Differentiation toward monocytes-like morphology and NBT-reduction has been assessed after 5 and 7 days. Cells (2×106) were washed with PBS four times and resuspended in 200 μL of NBT solution (4 mg/mL) in water. After the addition of 200 ul of TPA solution (2 ug/ml) in PBS cells were incubated at 37° C. for 60 min in 24-well plates. Cell differentiation was assessed by intracellular blue formazan deposits. The NBT positive and negative cells were scored under light microscopy examination (40×) with a minimum of 200 cells scored.
(§4) For spectrophotometric analysis the cells were washed twice with buffer containing cold bovine serum albumin solution (17 mg/mL BSA, 137 mmol/L, NaCl, 5 mmol/L, KCl, 0.8 mmol/L, MgSO4, […], HEPES, pH7.4) to remove unreacted NBT, and the insoluble formazan deposits in the resulting pellet were solubilized in 1 mL of a mixture containing 90% DMSO, 0.1% SDS and 0.01 mmol/L NaOH by vigorous vortexing. The samples were centrifuged 5 min at 1500 g to remove the cellular debris, and then the absorbance of supernatants was measured at 715 nm. Data are expressed as change in A715/106 cells.

The test system of data set [8] is HL-60 human promyelocytic leukemia cells. In words: Monocytic differentiation (NBT), HL-60. The data set is classed as cell-based. Conditions: HL-60, 0.1 μM. The method, then:
as §3, §4

For the next data set, the target named is bovine CYP11A1 (Bos taurus, UniProt P00189). Put plainly: Metabolism by CYP11A1 (P450scc) in phospholipid vesicles. The data set is classed as in vitro ADME. Conditions: first 2 min of incubation. On the procedure:
(§5) Adrenodoxin was added last to initiate the reaction.
(§6) Products and remaining substrate were extracted with dichloromethane, and measured by reverse phase HPLC as described before (12, 13b).

For another data set, the target named is human CYP27B1 (Homo sapiens, UniProt O15528). Put plainly: Metabolism by CYP27B1 in phospholipid vesicles. Conditions: up to 10 min. The data set is classed as in vitro ADME. On the procedure:
as §5, §6

human CYP27B1, sequence (O15528 whole entry): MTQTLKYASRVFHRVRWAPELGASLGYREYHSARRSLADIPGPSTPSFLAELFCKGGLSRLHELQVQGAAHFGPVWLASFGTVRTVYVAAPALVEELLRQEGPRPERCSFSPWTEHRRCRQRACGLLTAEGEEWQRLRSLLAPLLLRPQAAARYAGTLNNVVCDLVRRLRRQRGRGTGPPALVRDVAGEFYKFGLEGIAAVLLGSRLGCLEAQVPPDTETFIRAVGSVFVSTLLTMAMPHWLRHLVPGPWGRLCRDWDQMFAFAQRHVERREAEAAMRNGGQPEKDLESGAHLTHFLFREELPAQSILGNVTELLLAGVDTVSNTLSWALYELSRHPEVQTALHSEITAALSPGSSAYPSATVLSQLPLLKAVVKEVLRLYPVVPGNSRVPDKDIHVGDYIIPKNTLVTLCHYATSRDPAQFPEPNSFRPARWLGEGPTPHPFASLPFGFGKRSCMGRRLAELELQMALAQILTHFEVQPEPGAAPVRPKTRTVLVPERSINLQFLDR
bovine CYP11A1, sequence (P00189 40-520): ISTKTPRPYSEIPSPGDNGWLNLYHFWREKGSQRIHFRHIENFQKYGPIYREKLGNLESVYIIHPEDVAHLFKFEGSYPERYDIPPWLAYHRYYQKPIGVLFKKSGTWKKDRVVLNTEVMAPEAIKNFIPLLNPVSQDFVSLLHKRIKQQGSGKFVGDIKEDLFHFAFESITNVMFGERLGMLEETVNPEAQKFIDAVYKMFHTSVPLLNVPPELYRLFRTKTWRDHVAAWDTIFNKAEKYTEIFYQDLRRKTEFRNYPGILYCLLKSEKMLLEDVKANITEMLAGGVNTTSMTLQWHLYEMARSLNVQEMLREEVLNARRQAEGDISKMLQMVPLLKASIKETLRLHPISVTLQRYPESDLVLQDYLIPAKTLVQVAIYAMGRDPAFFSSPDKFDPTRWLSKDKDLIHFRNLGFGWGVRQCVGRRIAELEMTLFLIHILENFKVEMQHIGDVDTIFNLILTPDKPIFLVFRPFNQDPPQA

`C=C1CC[C@H](O)C/C1=C/C=C1\CCC[C@@]2(C)[C@H]1CC[C@]2(O)[C@H](C)O` [17,20S(OH)2pD3, (5Z,7E)-(20S)-9,10-secopregna-5,7,10(19)-triene-3β,17α,20-triol]: the “TGF-b1 induced Type I collagen protein production (ELISA)” value in the data set on type I collagen was “suppressed”. The “TGF-b1 induced collagen protein production” value with Human dermal fibroblasts was “inhibited TGF-b1 induced collagen protein production”. Also, in data set [1], the G-CSF is 12 pg/mL, the GM-CSF came out at 41 pg/mL, the IFNγ was 0 pg/mL and the IL-1α was 4 pg/mL. Further, in data set [1], the IL-6 was 13 pg/mL, the IL-10 came to 16 pg/mL, the IL-17 is 111 pg/mL and the IP-10 was determined as 6 pg/mL. Moreover, in data set [1], the KC worked out at 5 pg/mL and the MCP-1 was 102 pg/mL. Further, in the data set with Col1A1 mRNA, the “TGF-b1 induced Col1A1 mRNA” value is recorded as “suppressed”.
Turning to `C=C1CC[C@H](O)C/C1=C/C=C1\CCC[C@]2(C)[C@@H](C(C)O)CC[C@@H]12` (stereo partly drawn) [20OH pD3, (5Z,7E)-9,10-secopregna-5,7,10(19)-triene-3β,20-diol], in data set [2], the “growth on soft agar (colonies greater than 0.2 and 0.5 mm)” value is given as “inhibit the growth on soft agar”. The “proliferation of mouse erytholeukemia cells (Mel)” value in data set [3] is recorded as “inhibit proliferation”. Further, the “differentiation of K562 cells” value in data set [4] is given as “induce differentiation”. The “proliferation (MTT test)” value in data set [5] is reported as “inhibit proliferation”. In [6], the “proliferation of K562 cells” value is “inhibit proliferation”. For the same compound, the “proliferation (DNA synthesis)” value with HaCaT keratinocytes is “inhibit proliferation”.
As for `CC(O)[C@H]1CC[C@H]2C3=CC=C4C[C@@H](O)CC[C@@]4(C)[C@@H]3CC[C@]12C` (stereo partly drawn) [20OH pL3, 3β,20-dihydroxy-9β,10α-pregna-5,7-diene], the “growth on soft agar (colonies greater than 0.2 and 0.5 mm)” value in [2] is recorded as “inhibit the growth on soft agar”. In data set [3], the “proliferation of mouse erytholeukemia cells (Mel)” value is given as “inhibit proliferation”. Also, the “differentiation of K562 cells” value in data set [4] is “induce differentiation”. Moreover, the “proliferation (MTT test)” value in data set [5] was “inhibit proliferation”. Besides, the “monocytic differentiation (NBT staining)” value in [7] and in data set [8] was “induce monocytic differention” throughout. The “proliferation of K562 cells” value in data set [6] is on record as “inhibit proliferation”. For the same compound, the “proliferation (DNA synthesis)” value in the data set with HaCaT keratinocytes is recorded as “inhibit proliferation”.
Compound `C=C1CC[C@H](O)C/C1=C/C=C1\CCC[C@@]2(C)[C@H]1CC[C@@H]2[C@@](C)(O)CCCC(C)C` [20S(OH)D3, (5Z,7E)-9,10-secocholesta-5,7,10(19)-triene-3β,20S-diol] displayed a substrate consumed on bovine CYP11A1 of 13%. In addition, the “metabolism by CYP27B1” value on human CYP27B1 was “metabolized to a single product at comparable initial rates”.
